Data from patent publication US20240108760A1 (priority 2021, published 2024).
Entries after “also recorded” stand apart in the source; their conditions may differ. Where two headings read alike, the source gives them in different places.

How the values were obtained:
[1] = target: T1, CODA71 chimeric receptors (Homo sapiens, UniProt P36544, F159M/H163T/I152M/R155K/V154L/W156N/Y151P); assay: Whole cell current clamp recording of CA1 neurons in acute slices, TC-5619 bath application; type: cell-based, C57BL/6 mice
[2] = target: T1, CODA71 chimeric receptors; assay: Spontaneous seizures in the intrahippocampal kainic acid focal epilepsy model (chronic EEG); type: in vivo, C57BL/6 mice; details: for focal seizures (overall conclusion): CODA71 delivered by AAV9 to hippocampus, activated by TC-5619
Description: (§1) Changes to evoked hippocampal seizure thresholds were measured in response to perforant pathway electrical stimulation. For spontaneous seizure experiments, mice were unilaterally injected intrahippocampally with kainic acid (KA) to induce epilepsy, 3 weeks prior to AAV9 injection and EEG electrode implantation.
In one set of animal studies, seven weeks prior to testing of neuron activities, kainic acid was unilaterally injected into CAT to evoke spontaneous seizures. Five weeks later, CODA71 receptor were bilaterally expressed in CA1/DG, along with bipolar electrode placement in CAT for recording EEG (FIG. 32). Spontaneous seizures were tracked with chronic EEG recordings. On alternating days, mice received two i.p. injections of either 100 mg/kg TC-5619 or saline, 2 hrs apart.

[3] = target: T1, CODA71 chimeric receptors; assay: Evoked hippocampal seizure threshold, perforant pathway electrical stimulation; type: in vivo, C57BL/6 mice; details: for increase of minimal threshold potential to evoke electrographic seizures: i.p. TC-5619 (100 mg/kg)
Description: as §1
In one set of animal studies, two weeks prior to seizure threshold testing, CODA71 were bilaterally-expressed in CA1/DG, along with bipolar electrode placement in CAT and the perforant pathway. 45 minutes prior to threshold testing, mice received 100 mg/kg TC-5619 or saline via i.p. injection. Electrical stimulation (1 sec at 60 Hz, 1 ms pulses) of increasing amplitude was delivered every 100 seconds, until electrographic seizures were evoked (FIG. 29).
Here evoked seizure thresholds were determined by monitoring responses to increasing amplitude electrical stimulation and as the minimal stimulation amplitude required to evoke sustained epileptic form activity in each trial.

hippocampal neurons = assay: Hippocampal expression of CODA71 receptor after AAV9 delivery; type: in vivo, C57BL/6 mice; details: hSyn promoter
[4] = scrambled control vector injected mice, TC-5619
[5] = CODA71 vector injected mice, 100 mg/kg TC-5619 i.p. 45 minutes prior

| Molecule | neuronal / CA1 action potential firing, excitability [1] | rheobase [1] | neuron property change in presence of bungarotoxin (BTX) ([1]; CODA71 vector vs scrambled control vector, α7-nAChR ligand binding domain inhibited by BTX) | intrinsic properties of whole cell recorded neurons (RMP, input resistance, rheobase, AP count) ([1]; after 1 minute application of 150 nM TC-5619) | focal seizures (overall conclusion) [2] | electrographic seizure duration ([2]; CODA71 vector mice, KA epileptic, i.p. TC-5619 100 mg/kg, p=0.0011, 100 mg/kg) | electrographic / spontaneous seizure frequency ([2]; CODA71 vector mice, KA epileptic, i.p. TC-5619 100 mg/kg, p=0.0325, 100 mg/kg) | spontaneous seizure frequency and duration [2, 4] | increase of minimal threshold potential to evoke electrographic seizures ([3]; CODA71 animals, p=0.0166 vs scrambled controls) | electrically-evoked seizure threshold [3, 5] | electrically-evoked seizure threshold [3, 4] | increase of minimal threshold potential to evoke electrographic seizures ([3]; scrambled controls) | neuronal / CA1 action potential firing, excitability ([1]; acute slices, CODA71 transduced, 1-minute bath application of 150 nM TC-5619) | expression of CODA71 receptor in hippocampal / CA1 neurons (hippocampal neurons) |
| --- | --- | --- | --- | --- | --- | --- | --- | --- | --- | --- | --- | --- | --- | --- |
| O=C(N[C@@H]1C2CCN(CC2)[C@H]1Cc1cccnc1)c1cc2ccccc2o1 [TC-5619] | suppressed CA1 action potential firing | 368±39.7 pA | little property change | rapidly changed | ameliorate spontaneous focal seizures | significantly reduced; also recorded: substantial decrease in seizure duration | significantly reduced; also recorded: dropped dramatically; also recorded: prolonged decrease in seizure frequency | little change; also recorded: No such effect was observed | 139±48.0% | increased more | did not change seizure thresholds | −10±13.2% | – | – |
| CODA71: chimeric LGIC: human α7-nAChR ligand binding domain with GlyRα1 Cys-loop, fused to human GlyRα1 ion pore domain; SEQ ID NO: 33 (protein) MRCSPGGVWLALAASLLHVSLQGEFQRKLYKELVKNYNPLERPVANDSQPLTVYFSLSLLQIMDVDEKNQVLTTNIWLQMSWTDHYLQWNVSEYPGVKTVRFPDGQIWKPDILLYNSADERFDATFHTNVLVNSSGHCQYLPPGIFKSSCPMDLKNFPMDVQTCKLKFGSWSYGGWSLDLQMQEADISGYIPNGEWDLVGIPGKRSERFYECCKEPYPDVTFTVTMRRRMGYYLIQMYIPSLLIVILSWISFWINMDAAPARVGLGITTVLTMTTQSSGSRASLPKVSYVKAIDIWMAVCLLFVFSALLEYAAVNFVSRQHKELLRFRRKRRHHKSPMLNLFQEDEAGEGRFNFSAYGMGPACLQAKDGISVKGANNSNTTNPPPAPSKSPEEMRKLFIQRAKKIDKISRIGFPMAFLIFNMFYWIIYKIVRREDVHNQ | – | – | – | – | effectively suppress focal seizure; also recorded: ameliorate spontaneous focal seizures; also recorded: prevented both evoked and spontaneous focal seizures | – | – | – | – | increased | – | – | effectively suppress neuronal firing; also recorded: successfully suppressed hippocampal neuronal excitability | expressed well; also recorded: effective expression |
